These results are taken from paper PMC2785482, “Combined Bezafibrate and Medroxyprogesterone Acetate: Potential Novel Therapy for Acute Myeloid Leukaemia” (PLoS ONE, 2009).

Each structure is given as a SMILES string.

In the assay the target is T1, AKR1C3 (Homo sapiens, UniProt P42330).
T1 construct: Recombinant N-terminal His-tagged AKR1C3
As to the kind of experiment: recombinant AKR1C3 phenanthrenequinone reduction, NADPH absorbance at […] nm. Format: biochemical.

T1 sequence (P42330 whole entry): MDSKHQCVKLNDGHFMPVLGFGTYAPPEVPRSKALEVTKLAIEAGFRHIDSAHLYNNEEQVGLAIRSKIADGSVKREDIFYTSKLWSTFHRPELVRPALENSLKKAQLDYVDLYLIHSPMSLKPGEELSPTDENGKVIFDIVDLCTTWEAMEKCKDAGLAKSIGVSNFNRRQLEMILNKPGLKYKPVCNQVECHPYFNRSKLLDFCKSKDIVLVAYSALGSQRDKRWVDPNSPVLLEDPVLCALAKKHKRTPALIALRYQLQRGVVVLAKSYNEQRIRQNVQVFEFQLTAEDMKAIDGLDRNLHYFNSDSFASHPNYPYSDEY

In general, IC50 refers to the concentration that gives 50% inhibition. As for `CC(=O)O[C@]1(C(C)=O)CC[C@H]2[C@@H]3C[C@H](C)C4=CC(=O)CC[C@]4(C)[C@H]3CC[C@@]21C` [MPA, medroxyprogesterone acetate], the IC50 was found to be 1.1 µM.
